{"source": "patent US11236025B2", "about": "“Methods for improving control of insects and related compositions” (Syngenta Participations AG, priority 2013, dated 2022)", "key": {"[1]": {"system": "Diabrotica balteata larvae", "assay": "Control of rootworm: greenhouse tray test on maize, soil application, larval mortality", "type": "in vivo", "settings": "168 h, infested 7 days after application, read-out: Corr. Mortality (%) 5 DAI", "protocol": "(§1) Plastic trays (13×18×11.5 cm) with 4 holes in the bottom were filled with a filter paper and 400 mL Drench soil. 8 maize seeds (2 rows with 4 seeds each) were placed on the soil. Compound solution was applied with a track-sprayer at 200 L/ha. After drying seeds were covered with 200 mL untreated Drench soil and evened. Trays were incubated in a greenhouse chamber (25° C., 50% r.h., 14 h light (>20,000 lux)) and watered daily. 7 days after application each tray was infested with 10 (3 replicates) Diabrotica balteata larvae. After infestation all trays were covered with a plastic lid, which was perforated with 6-9 holes for ventilation. 5 days after infestation the survived larvae were counted. Also assessed was the larval growth (size difference between compound replicates and control). TEFL=Tefluthrin."}, "[2]": {"system": "Agrotis ipsilon larvae", "assay": "Control of cutworm: greenhouse tray test on maize, soil application, larval mortality", "type": "in vivo", "settings": "168 h, infested 7 days after application, read-out: Corr. Mortality (%) 5 DAI", "protocol": "as §1, with “(>20′000” for “(>20,000”, “5 (6” for “10 (3”, “Agrotis ipsilon” for “Diabrotica balteata”"}, "[3]": {"settings": "w/15% Nachurs 6-24-6, 25 ppm AI"}, "[4]": {"settings": "w/15% Nachurs 6-24-6, 100 ppm AI"}, "[5]": {"settings": "w/30% Nachurs 6-24-6, 25 ppm AI"}, "[6]": {"settings": "w/30% Nachurs 6-24-6, 100 ppm AI"}}, "note": "Read-outs that look alike come from different tables or passages of the source."}
{"smiles": "Cc1c(F)c(F)c(COC(=O)[C@@H]2[C@H](/C=C(\\Cl)C(F)(F)F)C2(C)C)c(F)c1F", "note": "(racemic) [TEFL, Tefluthrin]", "values": [{"measurement": "mortality at 25 ppm", "setting": "[1]; no fertilizer, 25 ppm AI", "value": 0, "unit": "%"}, {"measurement": "mortality at 50 ppm", "setting": "[1]; no fertilizer, 50 ppm AI", "value": 0, "unit": "%"}, {"measurement": "mortality at 100 ppm", "setting": "[1]; no fertilizer, 100 ppm AI", "value": 18, "unit": "%"}, {"measurement": "mortality at 200 ppm", "setting": "[1]; no fertilizer, 200 ppm AI", "value": 86, "unit": "%"}, {"measurement": "mortality at 400 ppm", "setting": "[1]; no fertilizer, 400 ppm AI", "value": 100, "unit": "%"}, {"measurement": "mortality at 25 ppm", "setting": "[1]; [3]", "value": 4, "unit": "%"}, {"measurement": "mortality at 50 ppm", "setting": "[1]; w/15% Nachurs 6-24-6, 50 ppm AI", "value": 14, "unit": "%"}, {"measurement": "mortality at 100 ppm", "setting": "[1]; [4]", "value": 71, "unit": "%"}, {"measurement": "mortality at 200 ppm", "setting": "[1]; w/15% Nachurs 6-24-6, 200 ppm AI", "value": 100, "unit": "%"}, {"measurement": "mortality at 400 ppm", "setting": "[1]; w/15% Nachurs 6-24-6, 400 ppm AI", "value": 96, "unit": "%"}, {"measurement": "mortality at 25 ppm", "setting": "[1]; [5]", "value": 4, "unit": "%"}, {"measurement": "mortality at 50 ppm", "setting": "[1]; w/30% Nachurs 6-24-6, 50 ppm AI", "value": 11, "unit": "%"}, {"measurement": "mortality at 100 ppm", "setting": "[1]; [6]", "value": 86, "unit": "%"}, {"measurement": "mortality at 200 ppm", "setting": "[1]; w/30% Nachurs 6-24-6, 200 ppm AI", "value": 96, "unit": "%"}, {"measurement": "mortality at 400 ppm", "setting": "[1]; w/30% Nachurs 6-24-6, 400 ppm AI", "value": 100, "unit": "%"}, {"measurement": "mortality at 25 ppm", "setting": "[2]; no fertilizer, 25 ppm AI", "value": 38, "unit": "%"}, {"measurement": "mortality at 100 ppm", "setting": "[2]; no fertilizer, 100 ppm AI", "value": 25, "unit": "%"}, {"measurement": "mortality at 250 ppm", "setting": "[2]; no fertilizer, 250 ppm AI", "value": 71, "unit": "%"}, {"measurement": "mortality at 500 ppm", "setting": "[2]; no fertilizer, 500 ppm AI", "value": 92, "unit": "%"}, {"measurement": "mortality at 1000 ppm", "setting": "[2]; no fertilizer, 1000 ppm AI", "value": 100, "unit": "%"}, {"measurement": "mortality at 25 ppm", "setting": "[2]; [3]", "value": 31, "unit": "%"}, {"measurement": "mortality at 100 ppm", "setting": "[2]; [4]", "value": 29, "unit": "%"}, {"measurement": "mortality at 250 ppm", "setting": "[2]; w/15% Nachurs 6-24-6, 250 ppm AI", "value": 79, "unit": "%"}, {"measurement": "mortality at 500 ppm", "setting": "[2]; w/15% Nachurs 6-24-6, 500 ppm AI", "value": 100, "unit": "%"}, {"measurement": "mortality at 1000 ppm", "setting": "[2]; w/15% Nachurs 6-24-6, 1000 ppm AI", "value": 100, "unit": "%"}, {"measurement": "mortality at 25 ppm", "setting": "[2]; [5]", "value": 25, "unit": "%"}, {"measurement": "mortality at 100 ppm", "setting": "[2]; [6]", "value": 29, "unit": "%"}, {"measurement": "mortality at 250 ppm", "setting": "[2]; w/30% Nachurs 6-24-6, 250 ppm AI", "value": 79, "unit": "%"}, {"measurement": "mortality at 500 ppm", "setting": "[2]; w/30% Nachurs 6-24-6, 500 ppm AI", "value": 96, "unit": "%"}, {"measurement": "mortality at 1000 ppm", "setting": "[2]; w/30% Nachurs 6-24-6, 1000 ppm AI", "value": 100, "unit": "%"}]}
